In US20110046147A1, “17BETA-HYDROXYSTEROID DEHYDROGENASE TYPE 1 INHIBITORS FOR THE TREATMENT OF HORMONE-RELATED DISEASES” (UNIVERSITAT DES SAARLANDES, priority 2007, published 2011):

What was measured:
[1] = molecular target: T1, 17β-HSD2 (Homo sapiens, UniProt P37059); test: Inhibition of 17β-HSD2 (estradiol to estrone, radio-HPLC); format: biochemical; details: human placenta microsome fraction, 500 nM estradiol, NAD+ 1500 μM
T1 construct: from tissue; host or cells: human placenta, microsome fraction
T1 sequence (P37059 1-387): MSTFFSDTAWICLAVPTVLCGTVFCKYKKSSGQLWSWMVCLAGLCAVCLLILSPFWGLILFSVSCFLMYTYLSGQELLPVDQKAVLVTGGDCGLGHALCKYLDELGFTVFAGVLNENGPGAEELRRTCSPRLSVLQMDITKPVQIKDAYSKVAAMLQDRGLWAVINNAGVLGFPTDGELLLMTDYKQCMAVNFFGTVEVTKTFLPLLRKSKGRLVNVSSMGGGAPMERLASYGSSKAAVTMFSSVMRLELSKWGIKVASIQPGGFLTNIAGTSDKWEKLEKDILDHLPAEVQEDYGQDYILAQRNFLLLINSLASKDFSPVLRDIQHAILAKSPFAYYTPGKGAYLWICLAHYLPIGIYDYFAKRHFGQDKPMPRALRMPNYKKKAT

[2] = molecular target: T2, CYP1A2 (Homo sapiens, UniProt P05177); test: Inhibition of hepatic CYP enzymes: CYP1A2; format: biochemical; details: read-out: CYP1A2 IC50 (mean ± SD)
T2 construct: purchased Becton Dickinson GmbH (Heidelberg)
T2 sequence (P05177 1-516): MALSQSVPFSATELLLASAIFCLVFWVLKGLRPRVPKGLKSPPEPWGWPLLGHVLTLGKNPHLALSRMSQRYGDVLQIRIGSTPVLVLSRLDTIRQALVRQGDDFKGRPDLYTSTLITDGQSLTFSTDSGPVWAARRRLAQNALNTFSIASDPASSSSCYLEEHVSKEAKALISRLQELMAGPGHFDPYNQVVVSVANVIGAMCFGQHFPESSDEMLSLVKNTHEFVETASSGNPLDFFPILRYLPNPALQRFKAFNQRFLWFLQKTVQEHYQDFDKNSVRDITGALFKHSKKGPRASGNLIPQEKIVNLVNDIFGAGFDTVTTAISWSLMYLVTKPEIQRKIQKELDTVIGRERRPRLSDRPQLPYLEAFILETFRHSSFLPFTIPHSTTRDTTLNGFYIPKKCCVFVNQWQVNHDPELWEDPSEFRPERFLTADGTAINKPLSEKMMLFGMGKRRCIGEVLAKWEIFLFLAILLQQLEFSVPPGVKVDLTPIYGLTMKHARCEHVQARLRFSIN
Source text: (§1) Drug interactions (inhibition of hepatic CYP enzymes): The inhibition of six human hepatic cytochrome P450 enzymes by selected compounds was examined by means of the kit supplied by Becton Dickinson GmbH (Heidelberg).

[3] = molecular target: T3, CYP3A4 (Homo sapiens, UniProt P08684); test: Inhibition of hepatic CYP enzymes: CYP3A4; format: biochemical; details: read-out: CYP3A4 IC50 (mean ± SD)
T3 construct: purchased Becton Dickinson GmbH (Heidelberg)
T3 sequence (P08684 whole entry): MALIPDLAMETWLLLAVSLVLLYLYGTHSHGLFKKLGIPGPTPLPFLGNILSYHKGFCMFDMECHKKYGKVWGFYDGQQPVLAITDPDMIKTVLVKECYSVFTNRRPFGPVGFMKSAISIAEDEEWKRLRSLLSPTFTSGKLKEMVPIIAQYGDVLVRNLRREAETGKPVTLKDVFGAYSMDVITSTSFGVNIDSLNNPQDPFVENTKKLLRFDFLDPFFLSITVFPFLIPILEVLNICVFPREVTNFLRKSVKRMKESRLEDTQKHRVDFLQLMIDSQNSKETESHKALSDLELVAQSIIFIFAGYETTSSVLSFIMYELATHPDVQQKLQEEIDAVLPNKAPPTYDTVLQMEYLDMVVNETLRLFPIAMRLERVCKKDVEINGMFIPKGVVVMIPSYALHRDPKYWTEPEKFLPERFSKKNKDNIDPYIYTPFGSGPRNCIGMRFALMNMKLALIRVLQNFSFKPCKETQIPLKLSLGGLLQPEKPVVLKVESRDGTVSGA
Source text: as §1

[4] = test system: CaCo-2 cells; test: CaCo2 transport assay; format: in vitro ADME; details: 50 μM in donor compartment
Description: Performance of selected compounds in a CaCo2 assay: Caco-2 cell culture and transport experiments were performed according to Yee (Yee, S., Pharm. Res., 14(6): 763-766 (1997)), but slight modifications were introduced. The cultivation times were reduced from 21 to 10 days by increasing the sowing density from 6.3·10^4 to 1.65·10^5 cells per well. […] The initial concentration of the compounds in the donor compartment was 50 μM (in buffer with 1% ethanol or DMSO). Samples were taken from the acceptor side after 60, 120 and 180 min and from the donor side after 0 and 180 min. For glycoprotein P (P-gp) studies, bidirectional experiments were performed. The absorptive and secretory permeabilities (Papp (a-b) and Papp (b-a)) were determined. Thus, erythromycin was used as a substrate, and verapamil was used as an inhibitor of P-gp. Each experiment was performed in triplicate. The integrity of the monolayer was determined by means of TEER (transepithelial electric resistance) and the permeability for each assay was determined using Lucifer Yellow. All samples of the CaCo-2 transport experiments were analyzed by means of LC/MS/MS after dilution with buffer (1:1 with 2% acetic acid). The apparent permeability coefficient (Papp) was calculated by means of the formula given below, where dQ/dt represents the recovery rate of the mass in the acceptor compartment, A represents the surface area of the transwell membrane, and c0 represents the initial concentration in the donor compartment.

SMILES: Oc1ccc(-c2ccsc2-c2cccc(O)c2)cc1 [Compound 28, 3-[3-(4-Hydroxyphenyl)-2-thienyl]phenol]
- IC50 [1]: 1800 nM
- IC50 [2]: 5.35 ± 0.24 µM
- IC50 [3]: 7.36 ± 0.49 µM
- Permeability (class in words) [4]: high

SMILES: Oc1cccc(-c2ccc(-c3cccc(O)c3)cc2)c1 [Compound 42, [1,1′,4′,1″]Terphenyl-3,3′-diol]
- IC50 [1]: 2300 nM
- IC50 [2]: 17.2 ± 1.16 µM
- IC50 [3]: 2.13 ± 0.13 µM
- Papp [cm/sec ± rel. SD] [4]: (12.5 ± 9.0) · 10^−6 cm/sec
- Permeability (class in words) [4]: high
